Test results published in publication PMC11448233, “High-throughput screening identification of apigenin that reverses the colistin resistance of mcr-1-positive pathogens” (Microbiology Spectrum, 2024).

What was measured:
mcr-1 protein [1] = target: T1, mcr-1 protein (Escherichia coli, UniProt A0A0R6L508); experiment: nano differential scanning fluorimetry; type: binding; conditions: apigenin 32 µg/mL, mcr-1 100 µg/mL, PBS, 20 min incubation, 25-95 °C at 5 °C/min; Tm lowered (destabilised)
T1 construct: gene mcr1; mcr-1 amplified from K. pneumoniae ZJ02, pET28a(+) NheI/XhoI, E. coli BL21(DE3), Ni-NTA; tag removal not mentioned

mcr-1 protein [2] = target: T1, mcr-1 protein; experiment: microscale thermophoresis; type: binding

T1 sequence (A0A0R6L508 whole entry): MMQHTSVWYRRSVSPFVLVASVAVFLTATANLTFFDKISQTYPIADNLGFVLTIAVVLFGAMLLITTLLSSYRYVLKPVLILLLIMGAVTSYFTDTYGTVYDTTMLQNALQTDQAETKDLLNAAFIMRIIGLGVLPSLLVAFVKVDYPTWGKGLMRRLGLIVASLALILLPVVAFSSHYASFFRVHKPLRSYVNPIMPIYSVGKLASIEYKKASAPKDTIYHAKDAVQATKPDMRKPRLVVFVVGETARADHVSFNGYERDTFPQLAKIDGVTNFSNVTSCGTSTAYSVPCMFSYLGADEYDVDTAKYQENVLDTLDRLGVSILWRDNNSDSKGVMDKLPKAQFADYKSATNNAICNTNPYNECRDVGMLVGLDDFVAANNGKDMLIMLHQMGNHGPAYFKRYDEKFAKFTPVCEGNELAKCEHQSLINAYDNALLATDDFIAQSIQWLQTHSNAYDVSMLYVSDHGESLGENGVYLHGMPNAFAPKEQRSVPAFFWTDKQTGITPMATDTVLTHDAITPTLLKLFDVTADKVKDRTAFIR

How did the Tm decrease (mcr-1 protein [1]) turn out when `O=c1cc(-c2ccc(O)cc2)oc2cc(O)cc(O)c12` [apigenin] was run?
Its Tm decrease is 5.7 °C.

What about the Kd (mcr-1 protein [2]) of the same compound?
The Kd was 4.35 µM.
